Measurements as given in patent publication US6573258B2, “Photodynamic porphyrin antimicrobial agents” (Frontier Scientific, Inc., priority 2000, dated 2003).

Legend:
[1] = system: E. coli cells; assay: Growth inhibition after 5 min incubation with porphyrin and white-light irradiation; assay type: cell-based, Escherichia coli
Experimental: (§1) The abilities of various examples of the porphyrins of the instant invention to kill Gram-negative and Gram-positive bacteria were tested against that of T4MPyP. Each of the compounds was incubated with E. coli and S. aureus cells for 5 minutes, following which the samples were irradiated with white light for varying lengths of time.
(§2) Escherichia coli strain O4 (wild type), and methycillin-resistant Staphylococcus aureus, strain MRSA 110, were grown aerobically at 37° C. in brain heart infusion broth (BHI, Difco, Detroit, Mich.). The cells in the stationary phase of growth were harvested by centrifugation (2,000 g for 15 min) of the broth cultures, washed twice with 10 mM PBS at pH=7.4, containing 2.7 mM KCl and 0.14 M NaCl, and suspended in PBS at a density of 10^8-10^9 cells/ml (absorbance of about 0.7 at 650 nm). Aliquots of 5 ml of the cell suspension were incubated with 1 μM porphyrins for 5 min in the dark at room temperature. After incubation the suspensions were centrifuged and the cell pellets were collected immediately or washed with PBS and centrifuged again for one or three times.
(§3) The toxic effects of T4MPyP and its analogues on E. coli and S. aureus cells were evaluated by measuring the extent of growth inhibition (bacteriostatic effect) and reduction of survival (cytocidal/bacteriocidal effect) following treatment with porphyrin in the dark or upon light exposure.
(§4) In all cases, 5 ml of the cell suspension (10^8-10^9 cells/ml) were incubated for 5 min in the dark at room temperature with the selected photosensitizer at concentrations ranging between 0.5 and 10 μM. After dark-incubation, some of the cell samples were irradiated with white light (150 mW/cm^2). During irradiation, (up to 30 min) the cells were kept at 37° C. and magnetically stirred. The treated and untreated control cells were diluted with BHI and maintained at 37° C. while the absorbance of the suspension at 650 nm was monitored at predetermined time periods for determining growth curves. The percent of growth inhibition in the treated cells was calculated by the following equation: […]
(§5) where AX, and AC are the absorbances measured after 3 h incubation, respectively, for the treated and control cell suspensions, respectively, while A0 represents the initial absorbance and the AC is that of the control cell suspension after 5 hours incubation. Cell survival was determined by plating serially diluted aliquots of treated and untreated cells on brain heart agar and counting the number of colonies after 18-24 h incubation at 37° C.

[2] = system: S. aureus cells; assay: as above; assay type: cell-based, Staphylococcus aureus
Experimental: as §1, §2, §3
[…] After dark-incubation, some of the cell samples were irradiated with white light (150 mW/cm^2). During irradiation, (up to 30 min) the cells were kept at 37° C. and magnetically stirred. The treated and untreated control cells were diluted with BHI and maintained at 37° C. while the absorbance of the suspension at 650 nm was monitored at predetermined time periods for determining growth curves. The percent of growth inhibition in the treated cells was calculated by the following equation:
as §5

[3] = system: E. coli cells; assay: Decrease of cell survival (colony counting) after white-light irradiation; assay type: cell-based, Escherichia coli; conditions: 5 min dark incubation, 15 min white light (150 mW/cm^2)
Experimental: as §2, §3, §4, §5

[4] = Fluorescence quantum yields; assay type: physicochemical; conditions: for ΦF (PBS), fluorescence quantum yield: in PBS; for ΦF (SDS), fluorescence quantum yield: in aqueous 2% SDS
Experimental: Ground-state absorption spectra of the porphyrins (ca. 5 μM in phosphate buffered saline (PBS, pH=7.4) were recorded with a Lambda 5 Perkin-Elmer spectrophotometer. Fluorescence spectra, corrected for the instrumental response, were recorded with a Perkin-Elmer (model LS) or a Spex (Fluorolog F112) spectrofluorimeter. Fluorescence quantum yields ((IF) of the porphyrin derivatives in PBS and in water containing 2% sodium dodecylsulfate (a detergent, hereinafter “SDS”) were determined by measuring the area of the emission spectrum (600-800 nm range, excitation at 560 nm) and using tetra-n-propylporphycene in toluene as a reference (ΦF=0.38). Braslavsky et al, J. Photochem. Photobiol. B: Biol., 40:191-198 (1997). In all cases, the absorbance of the sample and the reference solution were kept below 0.1 at the excitation wavelength to minimize inner filter effects.

[5] = Fluorescence decay times (phase-shift method); assay type: physicochemical; conditions: ca. 5 μM, air-equilibrated buffer pH 7.4, λexc = 420 nm, λem > 600 nm
Experimental: Fluorescence decay times of the porphyrin samples were measured by means of a Spex Fluorolog-τ2 spectrofluorimeter based on the phase-shift method. The frequency response curves (phase-shift and demodulation ratio vs. frequency) were globally analyzed.

[6] = Triplet state properties by laser flash photolysis; assay type: physicochemical; conditions: phosphate-buffered solution; for φT, triplet quantum yield: ε920 estimated by total depletion method
Experimental: Laser flash photolysis experiments were carried out by use of the setup previously described in Gomer, et al., with excitation wavelengths of 355 and 420 nm. Gorner, et al., Photoinduced electron transfer between styrylanthracenes and electron donors and acceptors in acetonitrile, J. Chem. Soc. Faraday Trans., vol. 88, pp. 29-34 (1992).
The transient spectra of the porphyrins in buffer solutions were recorded upon laser flash photolysis excitation at 355 and 420 nm. […] The decay (growth) of the signal (bleaching) occurred according to first-order kinetics and led to a complete recovery of the ground state with a lifetime of 91 μs. […] This also allowed the triplet quantum yield (φT) to be determined (see Table 3), after calibration of the experimental setup by use of an optically-matched solution of benzophenone in acetonitrile.

[7] = Photosensitized photooxidation of NATA; conditions: 10 μM NATA; for ΦSDS × 10^3, quantum yield for photo-oxidation of NATA: aqueous 2% SDS; for ΦPBS × 10^3, quantum yield for photo-oxidation of NATA: phosphate buffered solution
Experimental: The photosensitizing activity of the various porphyrins was tested by measuring their efficiency in promoting the photooxidation of N-acetyl-L-tryptophanamide (NATA, Aldrich Chem. Co.) as a model biological substrate. Toward this aim, 10 μM NATA in PBS or in water containing 2% SDS was irradiated in the presence of 5 μM porphyrin. The irradiations were performed with 515±10 nm-light isolated by means of an interference filter (Balzers, Liechtenstein), while the solution (2 ml) was magnetically stirred in a quartz cuvette of 1-cm optical path and kept at 25° C. The photosensitized modification of NATA was followed by measuring the decrease in the intensity of its fluorescence emission spectrum (300-450 nm) upon excitation with 290 nm-light at various irradiation times. Plots of in F°/F (where F° and F represent the fluorescence intensity at time 0 and t, respectively) vs. the irradiation time allowed the first-order rate constants of the photo-process to be derived.
The intensity of the incident light was measured by using Aberchrome 999P in toluene as an actinometer. Heller, EPA Newslett., 29:49-60 (1987). This parameter was used to calculate the quantum yields of NATA photooxidation sensitized by the different porphyrins.

[8] = system: E. coli cells; assay: Binding of porphyrins to bacteria cells; assay type: cell-based, Escherichia coli; conditions: 5 min incubation, 1 μM porphyrin, three PBS washings
Experimental: as §2
(§6) The amount of cell-bound porphyrins was determined in the pellets after resuspension and overnight-incubation in 2% aqueous SDS. The porphyrin concentration in the cell lysate was determined by measuring the intensity of red fluorescence (600-750 nm) emitted after excitation at 420 nm and interpolating the data on a calibration plot obtained with known porphyrin concentrations. The protein content of the cell samples was determined by the method of Lowry (Lowry et al., J. Biol. Chem., 193:265-275 (1951)) and was used to express the amount of porphyrin bound to the cells as nanomoles of porphyrin/mg of protein.

[9] = system: S. aureus cells; assay: Binding of porphyrins to bacteria cells; assay type: cell-based, Staphylococcus aureus; conditions: S. aureus, 5 min incubation, 1 μM porphyrin, three PBS washings
Experimental: as §2, §6

[10] = system: S. aureus cells; assay: Dark toxicity of porphyrins on bacteria cells; assay type: cell-based, Staphylococcus aureus; conditions: 10 μM, 5 min incubation in the dark
Experimental: as §3, §4, §5

[11] = system: E. coli cells; assay: Dark toxicity of porphyrins on bacteria cells; assay type: cell-based, Escherichia coli; conditions: 10 μM, 5 min incubation in the dark
Experimental: as §3, §4, §5

[12] = Photostability (photobleaching) under white light; assay type: physicochemical; conditions: 1 μM in PBS
Experimental: The photostability of the porphyrins was determined in PBS upon illumination of […] solutions with white light (400-800 nm) isolated from the emission of a quartz-halogen lamp equipped with UV and infrared filters (Teclas, Lugano, Switzerland). The lamp was operated at a fluence rate of 150 mW/cm^2. During irradiation, the solution was magnetically stirred and kept at 37° C. The concentration of the porphyrin samples was monitored spectrophotometrically at different irradiation times and the photostability was expressed as the percent residual absorbance referred to the absorbance measured prior to irradiation.

[13] = 10 μM, incubated 5 min, white light 5 min
[14] = 10 μM, incubated 5 min, white light 15 min
[15] = Table 5: 10 μM, 5 min incubation, 5 min white light (150 mW/cm^2)
[16] = 1 μM, incubated 5 min, white light 5 min
[17] = Table 5: 1 μM, 5 min incubation, 5 min white light (150 mW/cm^2)

## C[n+]1ccc(-c2c3nc(c(-c4cc[n+](C)cc4)c4ccc([nH]4)c(-c4cc[n+](C)cc4)c4nc(c(-c5cc[n+](C)cc5)c5ccc2[nH]5)C=C4)C=C3)cc1.Cc1ccc(S(=O)(=O)[O-])cc1.Cc1ccc(S(=O)(=O)[O-])cc1.Cc1ccc(S(=O)(=O)[O-])cc1.Cc1ccc(S(=O)(=O)[O-])cc1 [Porphyrin T4MPyP, Meso-tetra(N-methyl-4-pyridyl)porphine tetratosylate, reference compound]
[1]; [13]
  Growth inhibition (%) E. coli: 28.7%
[1]; [14]
  Growth inhibition (%) E. coli: 82.8%
[1]; [15]
  Growth inhibition (%) E. coli: 29%
[1]; both cell strains (S. aureus and E. coli)
  concentration photoinducing significant bacteriostatic and bactericidal action: 10 µM
[2]; [13]
  Growth inhibition (%) S. aureus: 96.4%
[2]; [14]
  Growth inhibition (%) S. aureus: 100%
[2]; [15]
  Growth inhibition (%) S. aureus: 96%
[3]; 1 μM porphyrin
  DECREASE OF SURVIVAL (log): +0.28 log
[3]; 10 μM porphyrin
  DECREASE OF SURVIVAL (log): −1.82 ± 0.82 log
[4]
  ΦF (PBS), fluorescence quantum yield: 0.017
  ΦF (SDS), fluorescence quantum yield: 0.031
[5]
  A1, relative weight of fast component: 29%
  A2, relative weight of slow component: 71%
  τ1, fluorescence decay time of fast component: 1.0 ns
  τ2, fluorescence decay time of slow component: 4.7 ns
[6]
  λmax of transient spectrum: 480 nm
  λmin of transient spectrum: 425 nm
  φ×ε920: 6814 M⁻¹ cm⁻¹
  τ^air, triplet lifetime: 14 μs
  φT, triplet quantum yield: 0.73
[6]; N2
  τ^N2, triplet lifetime: 91 μs
[7]
  ΦSDS × 10^3, quantum yield for photo-oxidation of NATA: 0.64 ± 0.08
  ΦPBS × 10^3, quantum yield for photo-oxidation of NATA: 0.77 ± 0.21
[8]
  initially bound porphyrin retained after three washings: 11%
[9]
  initially bound porphyrin retained after three washings: 16%
[10]
  inhibition of bacterial cell growth in the dark: barely detectable inhibition
[11]
  inhibition of bacterial cell growth in the dark: barely detectable inhibition

## CCCCCCCCCCCCCCCCCCCCCC[n+]1ccc(-c2c3nc(c(-c4cc[n+](C)cc4)c4ccc([nH]4)c(-c4cc[n+](C)cc4)c4nc(c(-c5cc[n+](C)cc5)c5ccc2[nH]5)C=C4)C=C3)cc1.Cl.Cl.[Cl-].[Cl-].[Cl-].[Cl-] [Porphyrin C22, 5-(4-N-docosanyl)-10,15,20-tris(4-N-methylpyridyl)-21H,23H-porphine tetrachloride dihydrochloride salt]
[1]; [16]
  Growth inhibition (%) E. coli: 2.7%
[1]; 1 μM, incubated 5 min, white light 30 min
  Growth inhibition (%) E. coli: 18.5%
[1]; [17]
  Growth inhibition (%) E. coli: 3%
[2]; [16]
  Growth inhibition (%) S. aureus: 69.7%
[2]; 1 μM, incubated 5 min, white light 10 min
  Growth inhibition (%) S. aureus: 90.2%
[2]; Table 5: 0.5 μM, 5 min incubation, 5 min white light (150 mW/cm^2)
  Growth inhibition (%) S. aureus: 27%
[2]; [17]
  Growth inhibition (%) S. aureus: 70%
[3]; 1 μM porphyrin
  DECREASE OF SURVIVAL (log): +0.22 ± 0.07 log
[3]; 10 μM porphyrin
  DECREASE OF SURVIVAL (log): −1.94 ± 0.28 log
[4]
  ΦF (PBS), fluorescence quantum yield: 0.001
  ΦF (SDS), fluorescence quantum yield: 0.029
[5]
  A2, relative weight of slow component: 73%
  τ1, fluorescence decay time of fast component: 0.5 ns
  τ2, fluorescence decay time of slow component: 5.9 ns
[6]
  λmin of transient spectrum: 420 nm
  φ×ε920: <122 M⁻¹ cm⁻¹
  τ^air, triplet lifetime: 0.1 μs
  φT, triplet quantum yield: <0.08
[7]
  ΦSDS × 10^3, quantum yield for photo-oxidation of NATA: 0.83 ± 0.08
  ΦPBS × 10^3, quantum yield for photo-oxidation of NATA: below our detection limits
[12]
  t^1/2 of initial fast photodegradation phase: 6.5 min
